Assay results reported in the supplement of paper PMC11061612.

Tests used:
[1] = system: NCI-H526 (Small Cell Lung Carcinoma); experiment: Bliss excess, mean over the matrix (fraction); higher = more synergy
Summary of the method: (§1)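 Cell lines in DMEM/F12 or RPMI with 10% FBS were plated in 1536-well plates, held 24 hours at 37°C, 5% CO2, then given two-drug dose matrices for 72 hours (DMSO typically 0.2%). Viability was read by CellTiter-Glo 2.0 luminescence and scaled as inhibition from 0 (vehicle wells) to 1 (blank wells). Combination Emax is the second-highest inhibition in the matrix; Bliss excess is observed combination effect minus expected EA + EB − EA·EB, EA and EB being single-agent effects.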

[2] = system: SUP-B15 (B-Lymphoblastic Leukemia); experiment: as above
Summary of the method: as §1

[3] = system: SU-DHL-5 (B-Cell Non-Hodgkin's Lymphoma); experiment: as above
Summary of the method: as §1

[4] = system: PC-3 (Prostate Carcinoma); experiment: as above
Summary of the method: as §1

NCI-H2731 (Mesothelioma) = experiment: as above
Summary of the method: as §1

[5] = system: HCC1187 (Breast Carcinoma); experiment: as above
Summary of the method: as §1

[6] = system: ESO51 (Esophageal Adenocarcinoma); experiment: as above
Summary of the method: as §1

[7] = system: NCI-H3122 (Lung Adenocarcinoma); experiment: as above
Summary of the method: as §1

[8] = system: JHH-4 (Hepatocellular Carcinoma); experiment: as above
Summary of the method: as §1

[9] = system: KP-3 (Pancreatic Carcinoma); experiment: as above
Summary of the method: as §1

[10] = system: NCCIT (Other Solid Carcinomas); experiment: as above
Summary of the method: as §1

[11] = system: H9 (T-Cell Non-Hodgkin's Lymphoma); experiment: as above
Summary of the method: as §1

[12] = system: IM-95 (Gastric Carcinoma); experiment: as above
Summary of the method: as §1

[13] = system: KY821 (Acute Myeloid Leukemia); experiment: as above
Summary of the method: as §1

[14] = system: T-T (Esophageal Squamous Cell Carcinoma); experiment: as above
Summary of the method: as §1

[15] = system: MOLM-13 (Acute Myeloid Leukemia); experiment: as above
Summary of the method: as §1

G-361 (Melanoma) = experiment: as above
Summary of the method: as §1

[16] = system: CHSA8926 (Chondrosarcoma); experiment: as above
Summary of the method: as §1

[17] = system: MN-60 (B-Lymphoblastic Leukemia); experiment: as above
Summary of the method: as §1

[18] = system: 8505C (Thyroid Gland Carcinoma); experiment: combination Emax (second highest fraction inhibited in the dose matrix, 72 h); higher = more inhibition; extreme values may be limits of the assay
Summary of the method: as §1
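Wherever Bliss excess, mean over the matrix is given: after 72 h of two-drug dosing.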

Structure (SMILES) | Bliss excess [1] | Bliss excess [2] | Bliss excess [3] | Bliss excess [4] | Bliss excess (NCI-H2731 (Mesothelioma)) | Bliss excess [5] | Bliss excess [6] | Bliss excess [7] | Bliss excess [8] | Bliss excess [9] | Bliss excess [10] | Bliss excess [11] | Bliss excess [12] | Bliss excess [13] | Bliss excess [14] | Bliss excess [15] | Bliss excess (G-361 (Melanoma)) | Bliss excess [16] | Bliss excess [17] | combination Emax [18]
CC1(C)CCC(CN2CCN(c3ccc(C(=O)NS(=O)(=O)c4ccc(NCC5CCOCC5)c([N+](=O)[O-])c4)c(Oc4cnc5[nH]ccc5c4)c3)CC2)=C(c2ccc(Cl)cc2)C1 [Venetoclax] + CN(C)CCCOc1ccc(-c2ccc3ncc4c(c3c2)n(C2CCOCC2)c(=O)n4C)cn1 [AZD0156] (first compound max 1 µM, 7x7, partner max 1 µM) | 0.0393 | -0.0392 | 0.0045 | -0.0363 | -0.029 | -0.0071 | -0.014 | -0.0656 | -0.0078 | -0.042 | 0.0086 | -0.0035 | -0.0016 | -0.0104 | 0.0197 | -0.126 | -0.0123 | -0.0249 | -0.0045 | 0.2
CC1(C)CCC(CN2CCN(c3ccc(C(=O)NS(=O)(=O)c4ccc(NCC5CCOCC5)c([N+](=O)[O-])c4)c(Oc4cnc5[nH]ccc5c4)c3)CC2)=C(c2ccc(Cl)cc2)C1 [Venetoclax] + COc1cc(Nc2ncc3c(n2)-c2ccc(Cl)cc2C(c2c(F)cccc2OC)=NC3)ccc1C(=O)O [Alisertib] (first compound max 1 µM, 7x7, partner max 10 µM) | 0.194 | 0.0151 | -0.003 | -0.0536 | -0.0311 | -0.0999 | -0.0192 | -0.0278 | -0.0328 | -0.0376 | 0.0159 | -0.0674 | 0.005 | 0.0079 | 0.0325 | 0.0371 | 0.0863 | -0.025 | 0.0368 | 0.275
CC1(C)CCC(CN2CCN(c3ccc(C(=O)NS(=O)(=O)c4ccc(NCC5CCOCC5)c([N+](=O)[O-])c4)c(Oc4cnc5[nH]ccc5c4)c3)CC2)=C(c2ccc(Cl)cc2)C1 [Venetoclax] + C[C@@H]1COCCN1C2=NC(=NC(=C2)C3(CC3)[S@](=N)(=O)C)C4=C5C=CNC5=NC=C4 [AZD6738] (first compound max 1 µM, 7x7, partner max 10 µM) | 0.0144 | 0.0383 | -0.0214 | -0.035 | -0.0713 | -0.0095 | -0.0093 | -0.0649 | -0.0399 | -0.0227 | -0.0355 | 0.0113 | -0.0191 | -0.0336 | -0.0286 | 0.0068 | -0.0132 | -0.0216 | 0.0434 | 0.482
CC1(C)CCC(CN2CCN(c3ccc(C(=O)NS(=O)(=O)c4ccc(NCC5CCOCC5)c([N+](=O)[O-])c4)c(Oc4cnc5[nH]ccc5c4)c3)CC2)=C(c2ccc(Cl)cc2)C1 [Venetoclax] + C[C@@H](Nc1cc(F)cc(F)c1)c1cc(C(=O)N(C)C)cc2c(=O)cc(N3CCOCC3)oc12 [AZD8186] (first compound max 1 µM, 7x7, partner max 3 µM) | 0.033 | -0.0587 | 0.0358 | 0.0065 | -0.0484 | -0.0069 | 0.0204 | -0.0311 | 0.0064 | -0.0376 | -0.0336 | -0.0159 | -0.068 | 0.0235 | 0.0094 | 0.0046 | 0.0075 | 0.0214 | 0.044 | 0.109
CC1(C)CCC(CN2CCN(c3ccc(C(=O)NS(=O)(=O)c4ccc(NCC5CCOCC5)c([N+](=O)[O-])c4)c(Oc4cnc5[nH]ccc5c4)c3)CC2)=C(c2ccc(Cl)cc2)C1 [Venetoclax] + Cc1cc2ncnn2cc1Nc1ncc2c(n1)n(C1CCOCC1)c(=O)n2C [AZD7648] (first compound max 1 µM, 7x7, partner max 10 µM) | 0.0079 | -0.0374 | -0.0362 | -0.0245 | -0.0272 | -0.0061 | -0.0308 | -0.0201 | -0.0059 | -0.0358 | -0.0326 | -0.0194 | -0.0192 | 0.056 | 0.0109 | 0.0014 | -0.0147 | -0.0023 | -0.0125 | 0.187
CC1(C)CCC(CN2CCN(c3ccc(C(=O)NS(=O)(=O)c4ccc(NCC5CCOCC5)c([N+](=O)[O-])c4)c(Oc4cnc5[nH]ccc5c4)c3)CC2)=C(c2ccc(Cl)cc2)C1 [Venetoclax] + Cn1cnc2c(F)c(Nc3ccc(Br)cc3Cl)c(C(=O)NOCCO)cc21 [Selumetinib] (first compound max 1 µM, 7x7, partner max 3 µM) | -0.011 | 0.108 | 0.0355 | -0.0484 | -0.0525 | -0.0161 | -0.0106 | -0.0309 | -0.0402 | -0.042 | -0.0252 | 0.0054 | -0.0187 | 0.0329 | 0.009 | 0.0783 | -0.0154 | -0.0455 | -0.0478 | 0.36
